Test results from patent US9833497B2, “Human originated EGF domain proteins and use of the same” (CHENGDU SOURCEBIO LIMITED-LIABILITY COMPANY, priority 2013, dated 2017).

How the values were obtained:
Format in all cases: cell-based
Proteus vulgaris = experiment: MIC against Gram-negative bacteria: Proteus vulgaris; conditions: 5×10^5 CFU/mL; for MIC (μg/mL) P. vulgaris / MIC against P. vulgaris: Proteus vulgaris
Experimental: (§1) 1. Gram-negative bacteria, such as E. coli BL21, Pseudomonas aeruginosa, Klebsiella pneumonia, Enterobacter cloacae, Aeromonas hydrophila, Citrobacter diversus, Moraxella catarrhalis, Proteus mirabilis, Proteus vulgaris, Serratia marcescens, etc were streaked on solid LB medium and cultured respectively. Then, typical clones were picked, inoculated into common liquid LB medium respectively, and cultured at 37° C. with shaking at 185 rpm until the McFarland specific turbidity was 0.5. The bacterial culture of each of Gram-negative bacteria was centrifuged at 4000×g for 3 min, the supernatant was discarded, and the thalli were resuspended with fresh LB medium.
(§2) 2. The above-mentioned bacterial suspensions were diluted and inoculated into 96-well plates with the final concentration of the bacterial suspension being 5×10^5 CFU/mL per well.
(§3) 3. Each of the purified human-originated EGF domain proteins (PRT1 to PRT1498 in Table 1) was added to each of the above wells and subjected to two-fold serial dilution in concentration. Three parallel wells were set up for each concentration in the gradient.
(§4) 4. The above-mentioned 96-well plates were placed and cultured at 37° C. in shaking incubator shaking at 175 rpm. […] The minimal inhibitory concentration MIC is defined as the lowest concentration of the recombinant protein at which there is no growth of the bacteria.

E. coli DH5α = experiment: Antibacterial activity: MIC and growth curve against E. coli DH5α in 96-well plate; conditions: minimal inhibitory concentration against E. coli DH5α; 96-well plate, 5×10^5 CFU/mL, 37° C., judged after 8 h
Experimental: 1. E. coli DH5α was exemplified. E. coli DH5α was streaked and cultured on LB solid medium. Then, a typical clone was picked and inoculated into common LB liquid medium, cultured at 37° C. with shaking at 185 rpm until the logarithmic growth phase was reached (OD600 of about 0.5). The bacterial culture was centrifuged at 4000×g for 3 min, the supernatant was discarded, and the thalli were resuspended with fresh LB medium.
2. The above-mentioned bacterial suspension was diluted and inoculated into a 96-well plate with the total volume of 100 μL per well and a bacterial count of 5×10^5 CFU/mL.
3. The recombinant protein hF VII-EGF1 was added to the above-mentioned wells with the final protein concentration in the well of the highest protein concentration being 50 μg/mL. Basing on this final concentration, a two-fold serial dilution was performed till a protein concentration gradient consisting of 50, 25, and 12.5 μg/mL was set up. Three parallel wells were set up for each concentration in the gradient.
as §4, with “plate was” for “plates were”, “rpm. Samples were taken every 30 min, the absorbance values were determined at 600 nm wavelength under a ultra violet spectrophotometer, and an inhibition curve was plotted.” for “rpm.”
According to the experimental procedures in Example 14, the minimal inhibitory concentrations (MIC, μg/mL) of the other human-originated EGF domain proteins (PRT2 to PRT1498 in Table 1) for E. coli DH5α were determined.

Enterobacter cloacae = experiment: MIC against Gram-negative bacteria: Enterobacter cloacae; conditions: 5×10^5 CFU/mL; for MIC (μg/mL) E. cloacae / MIC against E. cloacae: Enterobacter cloacae
Experimental: as §1, §2, §3, §4

Aeromonas hydrophila = experiment: MIC against Gram-negative bacteria: Aeromonas hydrophila; conditions: 5×10^5 CFU/mL; for MIC (μg/mL) A. hydrophila / MIC against A. hydrophila: Aeromonas hydrophila
Experimental: as §1, §2, §3, §4

E. coli BL21 = experiment: MIC against Gram-negative bacteria: E. coli BL21; conditions: 5×10^5 CFU/mL
Experimental: as §1, §2, §3, §4

Serratia marcescens = experiment: MIC against Gram-negative bacteria: Serratia marcescens; conditions: 5×10^5 CFU/mL; for MIC (μg/mL) S. marcescens / MIC against S. marcescens: Serratia marcescens
Experimental: as §1, §2, §3, §4

Proteus mirabilis = experiment: MIC against Gram-negative bacteria: Proteus mirabilis; conditions: 5×10^5 CFU/mL; for MIC (μg/mL) P. mirabilis / MIC against P. mirabilis: Proteus mirabilis
Experimental: as §1, §2, §3, §4

Pseudomonas aeruginosa = experiment: MIC against Gram-negative bacteria: Pseudomonas aeruginosa; conditions: 5×10^5 CFU/mL; for MIC (μg/mL) P. aeruginosa / MIC against P. aeruginosa: Pseudomonas aeruginosa
Experimental: as §1, §2, §3, §4

Citrobacter diversus = experiment: MIC against Gram-negative bacteria: Citrobacter diversus; conditions: 5×10^5 CFU/mL; for MIC (μg/mL) C. diversus / MIC against C. diversus: Citrobacter diversus
Experimental: as §1, §2, §3, §4

Klebsiella pneumonia = experiment: MIC against Gram-negative bacteria: Klebsiella pneumonia; conditions: 5×10^5 CFU/mL; for MIC (μg/mL) K. pneumonia / MIC against K. pneumonia: Klebsiella pneumonia
Experimental: as §1, §2, §3, §4

Moraxella catarrhalis = experiment: MIC against Gram-negative bacteria: Moraxella catarrhalis; conditions: 5×10^5 CFU/mL; for MIC (μg/mL) M. catarrhalis / MIC against M. catarrhalis: Moraxella catarrhalis
Experimental: as §1, §2, §3, §4

PRT630 (CQCSGNVDPNAVGNCDPLSGHCLRCLHNTTGDHCEHCQEGFYGSALAPRPADKCMP; listed as Homo sapiens)
MIC P. vulgaris (Proteus vulgaris; 96-well plate, 37° C., 10 h): 25 µg/mL
MIC (E. coli DH5α): 50 µg/mL
MIC E. cloacae (Enterobacter cloacae; 96-well plate, 37° C., 10 h): 12.5 µg/mL
MIC A. hydrophila (Aeromonas hydrophila; 96-well plate, 37° C., 10 h): 25 µg/mL
MIC E. coli BL21 (E. coli BL21; 96-well plate, 37° C., 10 h): 25 µg/mL
MIC S. marcescens (Serratia marcescens; 96-well plate, 37° C., 10 h): 12.5 µg/mL
MIC P. mirabilis (Proteus mirabilis; 96-well plate, 37° C., 10 h): 12.5 µg/mL
MIC P. aeruginosa (Pseudomonas aeruginosa; 96-well plate, 37° C., 10 h): 12.5 µg/mL
MIC C. diversus (Citrobacter diversus; 96-well plate, 37° C., 10 h): 12.5 µg/mL
MIC K. pneumonia (Klebsiella pneumonia; 96-well plate, 37° C., 10 h): 25 µg/mL
MIC M. catarrhalis (Moraxella catarrhalis; 96-well plate, 37° C., 10 h): 25 µg/mL

PRT75 (DDNICLREPCENYMRCVSVLRFDSSAPFIASSSVLFRPIHPVGGLRCRCPPGFTGDYCE; listed as Homo sapiens)
MIC (μg/mL) P. vulgaris (Proteus vulgaris; 96-well plate, 37° C., 10 h): 12.5 µg/mL
MIC (E. coli DH5α): 50 µg/mL
MIC (μg/mL) E. cloacae (Enterobacter cloacae; 96-well plate, 37° C., 10 h): 50 µg/mL
MIC (μg/mL) A. hydrophila (Aeromonas hydrophila; 96-well plate, 37° C., 10 h): 12.5 µg/mL
MIC (μg/mL) E. coli BL21 (E. coli BL21; 96-well plate, 37° C., 10 h): 25 µg/mL
MIC (μg/mL) S. marcescens (Serratia marcescens; 96-well plate, 37° C., 10 h): 12.5 µg/mL
MIC (μg/mL) P. mirabilis (Proteus mirabilis; 96-well plate, 37° C., 10 h): 12.5 µg/mL
MIC (μg/mL) P. aeruginosa (Pseudomonas aeruginosa; 96-well plate, 37° C., 10 h): 12.5 µg/mL
MIC (μg/mL) C. diversus (Citrobacter diversus; 96-well plate, 37° C., 10 h): 12.5 µg/mL
MIC (μg/mL) K. pneumonia (Klebsiella pneumonia; 96-well plate, 37° C., 10 h): 25 µg/mL
MIC (μg/mL) M. catarrhalis (Moraxella catarrhalis; 96-well plate, 37° C., 10 h): 12.5 µg/mL

PRT1402 (DGCPDLCNGNGRCTLGQNSWQCVCQTGWRGPGCN; listed as Homo sapiens)
MIC against P. vulgaris (Proteus vulgaris; 10 h cultivation at 37° C.): 25 µg/mL
MIC (E. coli DH5α): 25 µg/mL
MIC against E. cloacae (Enterobacter cloacae; 10 h cultivation at 37° C.): 50 µg/mL
MIC against A. hydrophila (Aeromonas hydrophila; 10 h cultivation at 37° C.): 25 µg/mL
MIC against E. coli BL21 (E. coli BL21; 10 h cultivation at 37° C.): 12.5 µg/mL
MIC against S. marcescens (Serratia marcescens; 10 h cultivation at 37° C.): 12.5 µg/mL
MIC against P. mirabilis (Proteus mirabilis; 10 h cultivation at 37° C.): 50 µg/mL
MIC against P. aeruginosa (Pseudomonas aeruginosa; 10 h cultivation at 37° C.): 25 µg/mL
MIC against C. diversus (Citrobacter diversus; 10 h cultivation at 37° C.): 12.5 µg/mL
MIC against K. pneumonia (Klebsiella pneumonia; 10 h cultivation at 37° C.): 12.5 µg/mL
MIC against M. catarrhalis (Moraxella catarrhalis; 10 h cultivation at 37° C.): 25 µg/mL

PRT676 (DINECAMPGVCRHGDCLNNPGSYRCVCPPGHSLGPSRTQCI; listed as Homo sapiens)
MIC P. vulgaris (Proteus vulgaris; 96-well plate, 37° C., 10 h): 50 µg/mL
MIC (E. coli DH5α): 25 µg/mL
MIC E. cloacae (Enterobacter cloacae; 96-well plate, 37° C., 10 h): 25 µg/mL
MIC A. hydrophila (Aeromonas hydrophila; 96-well plate, 37° C., 10 h): 12.5 µg/mL
MIC E. coli BL21 (E. coli BL21; 96-well plate, 37° C., 10 h): 50 µg/mL
MIC S. marcescens (Serratia marcescens; 96-well plate, 37° C., 10 h): 12.5 µg/mL
MIC P. mirabilis (Proteus mirabilis; 96-well plate, 37° C., 10 h): 12.5 µg/mL
MIC P. aeruginosa (Pseudomonas aeruginosa; 96-well plate, 37° C., 10 h): 12.5 µg/mL
MIC C. diversus (Citrobacter diversus; 96-well plate, 37° C., 10 h): 50 µg/mL
MIC K. pneumonia (Klebsiella pneumonia; 96-well plate, 37° C., 10 h): 50 µg/mL
MIC M. catarrhalis (Moraxella catarrhalis; 96-well plate, 37° C., 10 h): 25 µg/mL

PRT1480 (PGPCDSQPCQNGGTCVPEGLDGYQCLCPLAFGGEANCA; listed as Homo sapiens)
MIC against P. vulgaris (Proteus vulgaris; 10 h cultivation at 37° C.): 12.5 µg/mL
MIC (E. coli DH5α): 50 µg/mL
MIC against E. cloacae (Enterobacter cloacae; 10 h cultivation at 37° C.): 25 µg/mL
MIC against A. hydrophila (Aeromonas hydrophila; 10 h cultivation at 37° C.): 12.5 µg/mL
MIC against E. coli BL21 (E. coli BL21; 10 h cultivation at 37° C.): 12.5 µg/mL
MIC against S. marcescens (Serratia marcescens; 10 h cultivation at 37° C.): 50 µg/mL
MIC against P. mirabilis (Proteus mirabilis; 10 h cultivation at 37° C.): 50 µg/mL
MIC against P. aeruginosa (Pseudomonas aeruginosa; 10 h cultivation at 37° C.): 25 µg/mL
MIC against C. diversus (Citrobacter diversus; 10 h cultivation at 37° C.): 25 µg/mL
MIC against K. pneumonia (Klebsiella pneumonia; 10 h cultivation at 37° C.): 12.5 µg/mL
MIC against M. catarrhalis (Moraxella catarrhalis; 10 h cultivation at 37° C.): 12.5 µg/mL

PRT125 (CTGHCAHPRLPCFHGGRCVERYSYYTCDCDLTAFDGPYCN; listed as Homo sapiens)
MIC (μg/mL) P. vulgaris (Proteus vulgaris; 96-well plate, 37° C., 10 h): 50 µg/mL
MIC (E. coli DH5α): 100 µg/mL
MIC (μg/mL) E. cloacae (Enterobacter cloacae; 96-well plate, 37° C., 10 h): 12.5 µg/mL
MIC (μg/mL) A. hydrophila (Aeromonas hydrophila; 96-well plate, 37° C., 10 h): 50 µg/mL
MIC (μg/mL) E. coli BL21 (E. coli BL21; 96-well plate, 37° C., 10 h): 12.5 µg/mL
MIC (μg/mL) S. marcescens (Serratia marcescens; 96-well plate, 37° C., 10 h): 25 µg/mL
MIC (μg/mL) P. mirabilis (Proteus mirabilis; 96-well plate, 37° C., 10 h): 25 µg/mL
MIC (μg/mL) P. aeruginosa (Pseudomonas aeruginosa; 96-well plate, 37° C., 10 h): 12.5 µg/mL
MIC (μg/mL) C. diversus (Citrobacter diversus; 96-well plate, 37° C., 10 h): 25 µg/mL
MIC (μg/mL) K. pneumonia (Klebsiella pneumonia; 96-well plate, 37° C., 10 h): 12.5 µg/mL
MIC (μg/mL) M. catarrhalis (Moraxella catarrhalis; 96-well plate, 37° C., 10 h): 12.5 µg/mL

PRT1196 (DVDLCEPSPCRNGARCYNLEGDYYCACPDDFGGKNCS; listed as Homo sapiens)
MIC against P. vulgaris (Proteus vulgaris; 96-well plate, 37° C., 10 h): 25 µg/mL
MIC (E. coli DH5α): 12.5 µg/mL
MIC against E. cloacae (Enterobacter cloacae; 96-well plate, 37° C., 10 h): 25 µg/mL
MIC against A. hydrophila (Aeromonas hydrophila; 96-well plate, 37° C., 10 h): 25 µg/mL
MIC against E. coli BL21 (E. coli BL21; 96-well plate, 37° C., 10 h): 50 µg/mL
MIC against S. marcescens (Serratia marcescens; 96-well plate, 37° C., 10 h): 50 µg/mL
MIC against P. mirabilis (Proteus mirabilis; 96-well plate, 37° C., 10 h): 12.5 µg/mL
MIC against P. aeruginosa (Pseudomonas aeruginosa; 96-well plate, 37° C., 10 h): 12.5 µg/mL
MIC against C. diversus (Citrobacter diversus; 96-well plate, 37° C., 10 h): 50 µg/mL
MIC against K. pneumonia (Klebsiella pneumonia; 96-well plate, 37° C., 10 h): 25 µg/mL
MIC against M. catarrhalis (Moraxella catarrhalis; 96-well plate, 37° C., 10 h): 25 µg/mL
